Earlier results, collected in article PMC4781755 (Biochemistry, 2015).

Assays:
[1] = tested on: vcINDY
[2] = tested on: hNaDC3; details: read-out: Km for succinate, hNaDC3
[3] = tested on: hNaDC1; details: read-out: Km for succinate, hNaDC1

SMILES	inhibition of vcINDY [1]	Km [2]	Km [3]
O=C(O)CC(O)(CC(=O)O)C(=O)O [citrate]	weak inhibitor	–	–
O=C(O)CCC(=O)O [succinate]	–	~20 µM	500 µM
